Laboratory results from patent publication US11021507B2, “Myricetin derivative and preparing method thereof, and application of same for treating colitis, preventing and treating colitis tumorigenesis, and treating colorectal cancer” (MARINE BIOMEDICAL RESEARCH INSTITUTE OF QINGDAO CO., LTD., priority 2016, dated 2021).
In brackets after ≈: the same amount, converted by molar mass. Blank lines part the entries; values can stand above or below the molecule they belong to.

How the values were obtained:
[1] = test system: dextran sulfate sodium (DSS)-induced chronic colitis in mice; experiment: DSS-induced chronic colitis model in mice; type: in vivo, C57BL/6 mice; conditions: for Body weight compared with model group: FIG. 11; for Body weight compared with model group / Colon length compared with model group: P<0.05; for Diarrhea (general symptoms) during drug administration / Number of mice with no obvious diarrhea: 100 mg/kg daily, six mice per group; for Diarrhea (general symptoms) during drug administration: 18 days; for Grading scores for chronic inflammation of colon: number of mice colons with score + / Grading scores for chronic inflammation of colon: number of mice colons with score ++ / Grading scores for chronic inflammation of colon: number of mice colons with score 0: 3 mice examined per group, HE staining; for Grading scores for chronic inflammation of colon: number of mice colons with score +: + = slight inflammatory cell infiltration; for Grading scores for chronic inflammation of colon: number of mice colons with score ++: ++ = moderate inflammatory cell infiltration; for Grading scores for chronic inflammation of colon: number of mice colons with score 0: score 0 = no obvious inflammatory cell infiltration
Text: Determination of the therapeutic effects of myricetin derivative M5, M6 and M7 on dextran sulfate sodium (DSS)-induced chronic colitis in mice
1. Compounds tested and control drugs: myricetin derivative M5, M6 and M7, positive control drug-sulfasalazine (SASP, from Sigma); control drug-myricetin;
Experimental animals: C57BL/6 mice, 20 to 22 g, both male and female, SPF grade provided by Charles River Laboratories, Beijing.
2. DSS-induced chronic colitis model in mice: 36 C57BL/6 mice were randomly divided into six groups, with six mice in each group. DSS (0.5 g) was weighed and dissolved in 50 ml of purified water, for 6 mice to drink in one day. The DSS water was made freshly and was provided at fixed time on a daily basis for 7 days successively, which was then replaced by freshly-made purified drinking water for the next successive 14 days. The same procedure was repeated successively for 3 times. Each group of mice was given the same treatment for the preparation of chronic colitis model. 3. Drug preparation method: 3.1 Solvent control group: 0.5 mL of DMSO was added to 10 mL of 0.5% CMC-Na. 3.2 Myricetin derivative M5 and M6 tested: 100 mg of M5 and M6 each was weighed and dissolved in 0.5 ml of DMSO, and diluted to 10 mL with 0.5% CMC-Na. 3.3 Myricetin derivative M7 tested: 100 mg of M7 was weighed and dissolved in 10 mL of 5% sodium bicarbonate injection. 3.4 Myricetin control: 100 mg of myricetin was weighed and dissolved in 10 mL of 0.5% CMC-Na. 3.5 Sulfasalazine (SASP): 100 mg of SASP was weighed and dissolved in 10 mL of saline. 4. Administration method: the body weight of mice was weighed daily, and drugs were administered 0.01 ml/g (100 mg/kg) consecutively for 18 days. 5. Animal observation and treatment method: body weight, diet, diarrhea (or bloody stools) etc. were observed daily. At the end of the experiment, mice were sacrificed for dissection. The colon and small intestine were dissected out for visual observation and pathological analysis. Pathological examination methods and evaluation criteria: the colons of each group were fixed with 10% formalin followed by routine paraffin embedding, sectioning and HE staining. The degree of colonic inflammation in each group was evaluated under microscope. According to the degree of inflammatory cell infiltration in colonic lamina propria, the following grading criteria were established: level 0, no obvious inflammatory cell infiltration; +(level 1), slight inflammatory cell infiltration; ++(level 2), moderate inflammatory cell infiltration; +++(level 3), severe inflammatory cell infiltration and may be accompanied by necrosis or loss of mucosal cells.
Determination of Therapeutic Effects of Myricetin Derivative M13 and M14 on DSS-Induced Chronic Colitis in Mice
See Example 8 for the experimental method.

[2] = test system: azomethane (AOM)/dextran sulfate sodium (DSS)-induced chronic ulcerative colitis and inflammation-associated tumorigenesis; experiment: AOM/DSS-induced chronic ulcerative colitis and inflammation-associated tumorigenesis in mice; type: in vivo, C57BL/6 mice; conditions: 100 mg/kg aspirin or myricetin; M10 25-100 mg/kg; 12 weeks; FIG. 8
Text: Determination of therapeutic effect of myricetin derivative M10 on azomethane (AOM)/dextran sulfate sodium (DSS)-induced chronic ulcerative colitis and inflammation-associated tumorigenesis.
Compound tested and control drugs: myricetin derivative M10, control compound myricetin, aspirin (Sigma).
Experimental animals: C57BL/6 mice, 20 to 22 g, both male and female, SPF grade provided by Beijing Vital Lihua Experimental Animal Company, and mice were fed with standard animal feed.
Animal models of AOM/DSS-induced chronic colitis and inflammation-associated tumorigenesis: 48 C57BL/6 mice were randomly divided into six groups with eight mice in each group, including model group, for which 0.5% CMC-Na was administered intragastrically every day; aspirin group, for which 100 mg/kg of aspirin (dissolved in 0.5% CMC-Na) was administered intragastrically; myricetin control group, for which 100 mg/kg of myricetin (dissolved in 0.5% CMCNa) was administered intragastrically; M10 high dose group, for which 100 mg/kg of M10 (dissolved in pure water) was administered intragastrically; M10 medium dose group, for which 50 mg/kg of M10 (dissolved in pure water) was administered intragastrically; M10 low dose group, for which 25 mg/kg of M10 (dissolved in pure water) was administered intragastrically.
Preparation of chronic ulcerative colitis mice model: said groups of mice were intraperitoneally injected with 10 mg/kg of azoxymethane (AOM) on day one. Purified drinking water containing 2% dextran sulfate sodium (DSS) was freshly made and provided on day one and on the next six consecutive days, the replaced by purified drinking water for the next seven consecutive days. The above procedure was then repeated for 3 more times.
M10-treated group: 200 mg of M10 was weighed and dissolved in 10 mL of 0.5% CMC-Na solution (20 mg/mL), and consecutively diluted 2 times and 5 times for future use. 0.2 mL of each prepared solutions was given intragastrically to mice (the body weight was assumed as 20 g per mouse), namely divided into high, medium or small dose groups. Myricetin control group: 200 mg of myricetin was weighed and dissolved in 10 mL of 0.5% CMC-Na. Aspirin-treated group: 200 mg of aspirin was weighed and dissolved in 10 mL of 0.5% CMC-Na. Administration method: The body weight of mice was measured daily, and drugs were administered at 0.01 mL/g (100 mg/kg) per day for 12 consecutive weeks. 4. Animal observation and treatment methods: weight, diet, diarrhea (or bloody stools) etc. were observed daily.
At the end of the experiment, mice were sacrificed. The colon and small intestine were dissected out for visual observation and pathological analysis. Pathological examination methods and evaluation criteria: the mice colons of each group were fixed with 10% formalin, followed by routine paraffin embedding, sectioning and HE staining. The developmental degree of colonic inflammation and colon cancer in each group of mice was evaluated under microscopic observation.

[3] = test system: mouse peritoneal macrophage RAW264.7; experiment: Cytotoxicity / cell proliferation in RAW264.7 macrophages; type: cell-based; conditions: incubated 24 hours; dose increased to 20 μM
Text: Therefore, this series of compounds may be considered suitable for drug development for treating chronic colitis and inflammatory bowel disease.

[4] = Water solubility test (equilibrium solubility in pure water, LC/MS); type: physicochemical; conditions: 37° C.; for solubility at 24 h: ultrapure water, thermodynamic from solid
Experimental: Water solubility test for myricetin derivative M5, M6 and M10
Instrument: Waters Alliance e2695 LC/MS; chromatographic column: Waters×Bridge C18 4.6×150 mm.
Appropriate amount of said myricetin derivative was weighed and dissolved in methanol to prepare a solution of 1 mg/ml respectively, which was diluted with methanol to different concentrations of working solution as standard samples for testing.
2. 1 mL of ultrapure water was added into a 1.5 ml transparent EP tube. Appropriate amount of said myricetin derivative was each added into a transparent EP tube, followed by vortex mixation and ultrasonication till the drug was no longer dissolved (the solution appeared cloudy or had suspended particles). The mixture was then placed in an incubating oscillator for shaking at the temperature of (37±1) ° C., 100 r/min, for 24 hours, to achieve a sufficient solubility balance. 24 hours later, the saturated solution was taken out for centrifugation at 3000 r/min for 15 min. The supernatant was immediately filtered through a 0.45 μm microporous membrane, and the initial part of the filtrate was discarded. Samples were added for chromatography. The peak area was measured and the equilibrium solubility of each compound in pure water was calculated using a standard curve.

[5] = Example 17, method of Example 8
[6] = Example 17, method of Example 8, FIG. 12
[7] = 100 mg/kg for 18 days, end of experiment, FIG. 2

Structure (SMILES): O=c1c(O[C@@H]2O[C@H](CO[C@@H]3O[C@H](CO)[C@@H](O)[C@H]3O)[C@H](O)[C@H](O)[C@H]2O)c(-c2cc(O)c(O)c(O)c2)oc2cc(O)cc(O)c12 [M13]
Body weight compared with model group [1, 5]: significantly increased | Colon length compared with model group [1, 6]: significantly increased

Structure (SMILES): O=C(O)c1cc(/N=N/c2ccc(S(=O)(=O)Nc3ccccn3)cc2)ccc1O [SASP, sulfasalazine, reference compound]
Diarrhea (general symptoms) during drug administration [1]: slight reduction in diarrhea | Grading scores for chronic inflammation of colon: number of mice colons with score + ([1]; 100 mg/kg for 18 days): 1 | Grading scores for chronic inflammation of colon: number of mice colons with score ++ ([1]; 100 mg/kg for 18 days): 2

Structure (SMILES): CC(=O)Oc1ccccc1C(=O)O [aspirin, reference compound]
Pathological analysis of colon tissue (colon cancer) [2]: alleviated to some extent

Solubility (in words) ([4]; 24 h, per Table 2): very low | solubility at 24 h [4]: < 0.1 µg/mL
Structure (SMILES): CC(=O)OC[C@H]1O[C@@H](O[C@H]2[C@H](OC(C)=O)[C@@H](OC(C)=O)[C@H](Oc3c(-c4cc(OCc5ccccc5)c(OCc5ccccc5)c(OCc5ccccc5)c4)oc4cc(OCc5ccccc5)cc(O)c4c3=O)O[C@@H]2COC(C)=O)[C@H](OC(C)=O)[C@@H](OC(C)=O)[C@H]1OC(C)=O [M5]
Diarrhea (general symptoms) during drug administration [1]: no significant reduction in diarrhea | Grading scores for chronic inflammation of colon: number of mice colons with score + ([1]; 100 mg/kg for 18 days): 1 | Grading scores for chronic inflammation of colon: number of mice colons with score ++ ([1]; 100 mg/kg for 18 days): 2 | Inhibitory effect on cell proliferation (cytotoxic effect) [3]: no significant inhibitory effect

Structure (SMILES): O=c1c(O[C@@H]2O[C@H](CO[C@@H]3O[C@H](CO)[C@@H](O)[C@H](O)[C@@H]3O)[C@H](O)[C@H](O)[C@H]2O)c(-c2cc(O)c(O)c(O)c2)oc2cc(O)cc(O)c12 [M14]
Body weight compared with model group [1, 5]: significantly increased | Colon length compared with model group [1, 6]: significantly increased

solubility at 24 h [4]: 1.4 µg/mL (≈ 1.49 µM)
Structure (SMILES): CC(=O)OC[C@H]1O[C@@H](O[C@H]2[C@H](OC(C)=O)[C@@H](OC(C)=O)[C@H](Oc3c(-c4cc(O)c(O)c(O)c4)oc4cc(O)cc(O)c4c3=O)O[C@@H]2COC(C)=O)[C@H](OC(C)=O)[C@@H](OC(C)=O)[C@H]1OC(C)=O [M6]
Diarrhea (general symptoms) during drug administration [1]: slight reduction in diarrhea | Number of mice with no obvious diarrhea [1]: 1-2 mice | Grading scores for chronic inflammation of colon: number of mice colons with score + ([1]; 100 mg/kg for 18 days): 2 | Grading scores for chronic inflammation of colon: number of mice colons with score 0 ([1]; 100 mg/kg for 18 days): 1 | Colon length compared with model group [1, 7]: significantly longer | Inhibitory effect on cell proliferation (cytotoxic effect) [3]: no significant inhibitory effect

Structure (SMILES): O=c1c(O[C@@H]2O[C@H](CO)[C@@H](O[C@@H]3O[C@H](CO)[C@H](O)[C@H](O)[C@H]3O)[C@H](O)[C@H]2O)c(-c2cc(O)c(O)c(O)c2)oc2cc(O)cc(O)c12 [M7]
Diarrhea (general symptoms) during drug administration [1]: significant reduction in diarrhea | Number of mice with no obvious diarrhea [1]: 4 mice | Grading scores for chronic inflammation of colon: number of mice colons with score 0 ([1]; 100 mg/kg for 18 days): 3 | Degree of chronic colonic inflammation (pathological examination) ([1]; 100 mg/kg for 18 days, FIG. 3 and Table 1): significantly alleviated | Colon length compared with model group [1, 7]: significantly longer | Inhibitory effect on cell proliferation (cytotoxic effect) [3]: no significant inhibitory effect
